Read-outs that look alike come from different tables or passages of the source.
What was measured:
cynomolgus monkeys [1] = test: Effects on increasing renal blood flow (anesthetized, furosemide-pretreated monkeys, electromagnetic blood flowmeter); format: in vivo; conditions: Dose 0.32 mg/kg intravenously; anesthetized cynomolgus monkeys given furosemide
Method: Male and female cynomolgus monkeys weighing 2.0-4.8 kg were fed with conventional diet were given furosemide 10 mg/kg subcutaneously and 5 mg/kg intravenously on the previous day and the day of dosing with the test compound respectively. The animals were anesthetized with sodium pentobarbital (20 mg/kg, i.v.) and were maintained at a stable anesthetic level by continuous infusion of the anesthetic at a rate of 6 mg/kg/hr. After fixing the animals on the bench at 37°C, right femoral artery was catheterized for recording of the mean arterial blood pressure using a pressure transducer and left femoral vein was also catheterized for injection of the drug. Left renal artery was installed with an electromagnetic probe for recording renal blood flow using an electromagnetic blood flowmeter. When blood pressure, heart rate and renal blood flow, became sufficiently stable, the test compound dissolved in physiological saline was intravenously given at a rate of 0.2 ml/kg.

cynomolgus monkeys [2] = test: Diuretic effects (urine volume, urinary electrolytes, renal plasma flow, glomerular filtration rate in anesthetized monkeys); format: in vivo; conditions: at 15 min. after dosing, Control : 100%; for Increasing % of glomerular filtration rate: calculated from inulin concentrations; for Increasing % of renal plasma flow: calculated from paraaminohypuric acid concentrations
Method: Female cynomolgus monkeys weighing 3.2 - 3.9 kg were anesthetized with sodium pentobarbital (20 mg/kg, i.v.) and were maintained at a stable anesthetic level by continuous infusion of the anesthetic at a rate of 4 mg/kg/hr, and then right saphenous vein was catheterized for intravenous infusion. […] Under monitoring blood pressure, urine samples were taken from bladder by catheter and blood samples were taken from right brachial vein. After 90 min. when urine volume, blood, paraaminohypuric acid and inulin concentrations became stable, blood and urine samples were taken to measure concentrations of paraaminohypuric acid and inulin 45 min. before and 15, 30, 45 and 60 min. after dosing with the test compound. Urine volume and urinary electrolytes were measured and the renal plasma flow and glomerular filtration rate values were calculated from respective paraaminohypuric acid and inulin concentrations in the blood and urine samples.

Acute toxicity test = test: Acute toxicity test; set-up: species or system rats (Crj:CD(SD) strain); conditions: Crj:CD(SD), rat, in vivo, iv, intravenously, observed for 14 days, probit method, read-out: LD₅₀
Method: Five rats (Crj:CD(SD) strain) of either sex were used per group. Solutions of the test compound in physiological saline were administered to rats intravenously. The rats were then observed for 14 days. The LD₅₀ values were calculated by the probit method.

SMILES	Maximum decreasing % of renal vascular resistance (cynomolgus monkeys [1])	Maximum increasing % of renal blood flow (cynomolgus monkeys [1])	Increasing % of Cl⁻ excretion (cynomolgus monkeys [2]; Dose 1.0 mg/kg)	Increasing % of K⁺ excretion (cynomolgus monkeys [2]; Dose 1.0 mg/kg)	Increasing % of Na⁺ excretion (cynomolgus monkeys [2]; Dose 1.0 mg/kg)	Increasing % of urine volume (cynomolgus monkeys [2]; Dose 1.0 mg/kg)	Increasing % of glomerular filtration rate (cynomolgus monkeys [2]; Dose 1.0 mg/kg)	Increasing % of renal plasma flow (cynomolgus monkeys [2]; Dose 1.0 mg/kg)	LD50 at 14 days (Acute toxicity test; Female rats)	LD50 at 14 days (Acute toxicity test; Male rats)	Increasing % of Cl⁻ excretion (cynomolgus monkeys [2]; Dose 3.2 mg/kg)	Increasing % of K⁺ excretion (cynomolgus monkeys [2]; Dose 3.2 mg/kg)	Increasing % of Na⁺ excretion (cynomolgus monkeys [2]; Dose 3.2 mg/kg)	Increasing % of urine volume (cynomolgus monkeys [2]; Dose 3.2 mg/kg)	Increasing % of glomerular filtration rate (cynomolgus monkeys [2]; Dose 3.2 mg/kg)	Increasing % of renal plasma flow (cynomolgus monkeys [2]; Dose 3.2 mg/kg)
CC(C)CC[C@H](O)[C@H](CC1CCCCC1)NC(=O)[C@H](Cc1c[nH]cn1)N(C)C(=O)[C@H](Cc1ccccc1)OC(=O)N(C)CCN(C)C(=O)N1CCOCC1.Cl [(2), 2(S)-[N^α-[2(S)-[N-methyl-N-[2-{N-(morpholinocarbonyl)-N-methylamino)ethyl]aminocarbonyloxy]-3-phenylpropionyl]-N^α-methyl-L-histidyl]amino-1-cyclohexyl-3(S)-hydroxy-6-methylheptane hydrochloride]	+35.5%	+33.8%	466%	169%	205%	202%	156%	169%	69 mg/kg	55 mg/kg	–	–	–	–	–	–
CC(C)CC[C@H](O)[C@H](CC1CCCCC1)NC(=O)[C@H](Cc1c[nH]cn1)N(C)C(=O)[C@H](Cc1ccccc1)OC(=O)N(C)CCC(=O)N1CCOCC1.Cl [(1), 2(S)-[N^α-[2(S)-{N-(2-morpholinocarbonylethyl)-N-methylaminocarbonyloxy}-3-phenylpropionyl]-N^α-methyl-L-histidyl]amino-1-cyclohexyl-3(S)-hydroxy-6-methylheptane hydrochloride]	+19.3%	+17.1%	–	–	–	–	–	–	93.3 mg/kg	81.2 mg/kg	417%	135%	223%	259%	122%	149%
C[C@H](CS)C(=O)N1CCC[C@H]1C(=O)O [(A), Captopril, reference compound]	+11.5%	–	–	–	–	–	–	–	–	–	–	–	–	–	114%	–
